From patent US20080267880A1, “AUTOMATED METHOD FOR HIGH THROUGHTOUT SCREENING OF NEMATODES” (priority 2002, published 2008)
Values joined by “and” are separate entries in the source; they are usually repeats but may differ in a detail not shown here. Identical values can stand only once.

Columns and labels:
[1] = tested on: wild-type worms (C. elegans N2); assay type: in vivo, Caenorhabditis elegans
Method: Eggs were transferred to 24-well plates (Corning Inc., NY) containing 1 ml S-medium, without cholesterol, plus 1×10^8 cells/ml E. coli OP50, and grown at 25° C. All assays were performed on 3 day old egg-laying hermaphrodites. For worms treated with the superoxide/dismutase mimetic Euk-134 (Eukarion, Mass.) a single dose was added from a 5 mM stock (in Milli-Q water) on day one. At adulthood, 100 μL of culture media was removed from each well and replaced with 100 μL of paraquat stock solution (final concentration 40 mM). The cultures were then placed back at 25° C. and scored 48 h later for touch-provoked movement using a platinum wire. Immediately following the manual score, SYTOX green dye was added to each well to a final concentration of 1 μM.
We then examined the utility of SYTOX green dye as a score of death due to oxidative stress by incubating 3 day old gravid adult worms in the presence or absence of 40 mM paraquat for 48 hr. Death was first scored by the absence of touch provoked movement and 15 min later by the presence of SYTOX-associated fluorescence (FIG. 6A). […] Following the addition of […] SYTOX green dye and incubation for 15 min at room temperature, death was scored as the presence of fluorescence (FIG. 6A). The mean fraction alive (±SEM) as scored by SYTOX-associated fluorescence was 0.95±0.02 (n=69) in controls and 0.07±0.04 (n=157) in paraquat treated worms.
The utility of SYTOX dye was further tested in an experiment in which worms were cultured in the presence or absence of Euk-134 prior to paraquat exposure (FIG. 6B). […] The mean fraction alive (±SEM) scored by touch-provoked movement was 0.06±0.03 (n=47, 40 mM paraquat) and 0.78±0.11 (n 51, 40 mM paraquat+0.5 mM Euk134). The mean fraction alive (±SEM) scored using SYTOX dye was 0.13±0.00 (n=45, 40 mM paraquat) and 0.92±0.01 (n=51, 40 mM paraquat+0.5 mM Euk134). In each of these experiments the percentage of animals scored as alive using the SYTOX score was always slightly higher than the manual score.

[2] = tested on: wild type C. elegans N2; test: Microplate thermotolerance assay (35° C. heat shock, SYTOX fluorescence score of death); assay type: in vivo, Caenorhabditis elegans; parameters: thermotolerance compared to untreated wild type worms: dose or concentration left out as unconfirmed; settings: heat shock 35° C.
Method: Worms (˜10,000 to 20,000) were washed off NGM plates with 10 ml S-basal into a 15 ml tube. After gravity settling for 5 minutes, 9 ml S-basal was aspirated and replaced with fresh 9 ml S-basal. Following a further 2 washes the nematodes were introduced to the sample cup on the COPAS™ BIOSORT at a concentration of 1 worm per μl. Worms were dispensed, 1 animal per well, into either 96 well or 384 well microtitre plates according to the manufacturers instructions. For thermotolerance assays 384 well low volume plates (Greiner Bio-One Inc, Longwood, Fla.) were prepared with 20 μl S-medium containing SYTOX® at a final concentration of 1 μM. […]
The thermotolerance assay was performed in a Fluoroskan Ascent fluorometer (Thermo Labsystems, Finland). The ambient temperature of the fluorometer was set to 35° C. and Ascent software was configured to measure the fluorescence from each well every 30 minutes over a 20-24 hour period with a 20 millisecond measurement time for each well. At this setting a complete 384 well plate could be read within 30 seconds. The excitation wavelength for fluorescence was 485 nm and the emission wavelength 538 nm.
Analysis of individual fluorescence curves was performed using the Fluoroskan Ascent software. A 100% increase in fluorescence over baseline was used a cut-off to define a death event. […]

[3] = tested on: wild type C. elegans N2; settings: Babar et al. (1999); cited from earlier work
[4] = 40 mM paraquat+0.5 mM Euk134, 48 h

COc1cccc(C=NCCN=Cc2cccc(OC)c2[O-])c1[O-].[Cl-].[Mn+3] [Euk-134]
mean fraction alive (±SEM), scored by touch-provoked movement [1, 4]: 0.78±0.11 | mean fraction alive (±SEM), scored using SYTOX dye [1, 4]: 0.92±0.01

O=c1cc(N2CCOCC2)oc2c(-c3ccccc3)cccc12 [LY294002, 2-(4-Morpholinyl)-8-phenyl-4H-1-benzopyran-4-one]
effect of the drug on thermotolerance ([2]; 100 nM LY294002): no significant effect | thermotolerance compared to untreated wild type worms ([2]; grown from eggs to 4 day adults in S-medium at 20° C.): significantly more thermotolerant | thermotolerance of treated wild type worms (previously shown) [3]: confers thermotolerance similar to that seen in age-1(hx546)

C[n+]1ccc(-c2cc[n+](C)cc2)cc1 [paraquat]
mean fraction alive (±SEM), SYTOX-associated fluorescence score ([1]; 40 mM paraquat alone, 48 h, 3 day old gravid adults, 15 min SYTOX): 0.07±0.04 and 0.13±0.00
